Source: ChEMBL document CHEMBL5042544, “Discovery of a Potent and Selective ATAD2 Bromodomain Inhibitor with Antiproliferative Activity in Breast Cancer Models” (J Med Chem, 2022)
pIC50, pKd: −log10 of the molar value.

Tests used:
[1] = target: Histone acetyltransferase KAT2A (Homo sapiens) (UniProt Q92830); test: Binding affinity to human GCN5L2 bromodomain assessed as residual activity at 300 nM by BROMOscan method relative to control
[2] = Distribution coefficient, logD of compound at pH 7.4; type: physicochemical; settings: octanol/water
[3] = target: Bromodomain-containing protein 4 (Homo sapiens, UniProt O60885); test: Displacement of Alexafluor 647-JQ1 from GST-BRD4 BD1 BD2 (44 to 460 residues) (unknown origin) incubated for 60 mins by fluorescence polarization assay
[4] = target: T1, ATPase family AAA domain-containing protein 2 (Homo sapiens, UniProt Q6PL18); test: Binding affinity to ATAD2 bromodomain (981 to 1108 residues) (unknown origin) expressed in Escherichia coli BL21 (DE3) by BROMOscan method
T1 sequence (Q6PL18 whole entry): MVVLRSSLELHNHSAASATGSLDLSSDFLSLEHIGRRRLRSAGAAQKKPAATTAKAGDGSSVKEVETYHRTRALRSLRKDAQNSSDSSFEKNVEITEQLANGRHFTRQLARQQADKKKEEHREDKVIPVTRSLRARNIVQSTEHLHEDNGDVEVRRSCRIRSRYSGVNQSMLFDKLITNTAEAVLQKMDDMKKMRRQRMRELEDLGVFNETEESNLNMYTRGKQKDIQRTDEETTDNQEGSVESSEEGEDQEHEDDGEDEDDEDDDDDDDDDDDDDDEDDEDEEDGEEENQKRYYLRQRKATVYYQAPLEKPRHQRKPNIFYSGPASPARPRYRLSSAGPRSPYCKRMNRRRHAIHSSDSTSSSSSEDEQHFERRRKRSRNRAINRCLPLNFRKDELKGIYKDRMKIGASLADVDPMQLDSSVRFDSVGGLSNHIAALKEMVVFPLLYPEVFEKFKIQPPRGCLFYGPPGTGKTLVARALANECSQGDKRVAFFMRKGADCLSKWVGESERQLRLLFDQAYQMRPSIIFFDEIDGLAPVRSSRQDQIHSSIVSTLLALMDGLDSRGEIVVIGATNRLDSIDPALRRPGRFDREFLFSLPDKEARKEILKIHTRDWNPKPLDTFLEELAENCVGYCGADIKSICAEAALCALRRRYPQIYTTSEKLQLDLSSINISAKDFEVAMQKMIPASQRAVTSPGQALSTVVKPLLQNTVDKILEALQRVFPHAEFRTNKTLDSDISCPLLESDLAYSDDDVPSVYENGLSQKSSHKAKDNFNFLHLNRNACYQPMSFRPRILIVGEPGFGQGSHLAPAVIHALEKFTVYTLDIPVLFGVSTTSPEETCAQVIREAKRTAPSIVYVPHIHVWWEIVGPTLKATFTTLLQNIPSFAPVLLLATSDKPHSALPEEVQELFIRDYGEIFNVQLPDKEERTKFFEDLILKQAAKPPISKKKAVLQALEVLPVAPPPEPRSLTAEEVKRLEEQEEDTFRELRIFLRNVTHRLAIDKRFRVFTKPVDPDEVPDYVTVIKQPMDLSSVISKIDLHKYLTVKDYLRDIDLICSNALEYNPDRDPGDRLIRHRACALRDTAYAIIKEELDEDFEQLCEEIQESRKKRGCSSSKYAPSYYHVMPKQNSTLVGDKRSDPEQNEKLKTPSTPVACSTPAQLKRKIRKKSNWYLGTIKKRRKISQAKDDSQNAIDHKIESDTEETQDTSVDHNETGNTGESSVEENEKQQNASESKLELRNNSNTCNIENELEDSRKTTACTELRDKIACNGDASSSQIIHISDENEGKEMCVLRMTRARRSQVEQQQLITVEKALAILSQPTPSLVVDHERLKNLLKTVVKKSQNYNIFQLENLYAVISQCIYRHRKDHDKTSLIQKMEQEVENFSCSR

[5] = target: Histone acetyltransferase p300 (Homo sapiens, UniProt Q09472); test: Binding affinity to human EP300 bromodomain assessed as dissociation constant by BROMOscan method
Sequence of Histone acetyltransferase p300 (Q09472 whole entry, the tested form may be a part): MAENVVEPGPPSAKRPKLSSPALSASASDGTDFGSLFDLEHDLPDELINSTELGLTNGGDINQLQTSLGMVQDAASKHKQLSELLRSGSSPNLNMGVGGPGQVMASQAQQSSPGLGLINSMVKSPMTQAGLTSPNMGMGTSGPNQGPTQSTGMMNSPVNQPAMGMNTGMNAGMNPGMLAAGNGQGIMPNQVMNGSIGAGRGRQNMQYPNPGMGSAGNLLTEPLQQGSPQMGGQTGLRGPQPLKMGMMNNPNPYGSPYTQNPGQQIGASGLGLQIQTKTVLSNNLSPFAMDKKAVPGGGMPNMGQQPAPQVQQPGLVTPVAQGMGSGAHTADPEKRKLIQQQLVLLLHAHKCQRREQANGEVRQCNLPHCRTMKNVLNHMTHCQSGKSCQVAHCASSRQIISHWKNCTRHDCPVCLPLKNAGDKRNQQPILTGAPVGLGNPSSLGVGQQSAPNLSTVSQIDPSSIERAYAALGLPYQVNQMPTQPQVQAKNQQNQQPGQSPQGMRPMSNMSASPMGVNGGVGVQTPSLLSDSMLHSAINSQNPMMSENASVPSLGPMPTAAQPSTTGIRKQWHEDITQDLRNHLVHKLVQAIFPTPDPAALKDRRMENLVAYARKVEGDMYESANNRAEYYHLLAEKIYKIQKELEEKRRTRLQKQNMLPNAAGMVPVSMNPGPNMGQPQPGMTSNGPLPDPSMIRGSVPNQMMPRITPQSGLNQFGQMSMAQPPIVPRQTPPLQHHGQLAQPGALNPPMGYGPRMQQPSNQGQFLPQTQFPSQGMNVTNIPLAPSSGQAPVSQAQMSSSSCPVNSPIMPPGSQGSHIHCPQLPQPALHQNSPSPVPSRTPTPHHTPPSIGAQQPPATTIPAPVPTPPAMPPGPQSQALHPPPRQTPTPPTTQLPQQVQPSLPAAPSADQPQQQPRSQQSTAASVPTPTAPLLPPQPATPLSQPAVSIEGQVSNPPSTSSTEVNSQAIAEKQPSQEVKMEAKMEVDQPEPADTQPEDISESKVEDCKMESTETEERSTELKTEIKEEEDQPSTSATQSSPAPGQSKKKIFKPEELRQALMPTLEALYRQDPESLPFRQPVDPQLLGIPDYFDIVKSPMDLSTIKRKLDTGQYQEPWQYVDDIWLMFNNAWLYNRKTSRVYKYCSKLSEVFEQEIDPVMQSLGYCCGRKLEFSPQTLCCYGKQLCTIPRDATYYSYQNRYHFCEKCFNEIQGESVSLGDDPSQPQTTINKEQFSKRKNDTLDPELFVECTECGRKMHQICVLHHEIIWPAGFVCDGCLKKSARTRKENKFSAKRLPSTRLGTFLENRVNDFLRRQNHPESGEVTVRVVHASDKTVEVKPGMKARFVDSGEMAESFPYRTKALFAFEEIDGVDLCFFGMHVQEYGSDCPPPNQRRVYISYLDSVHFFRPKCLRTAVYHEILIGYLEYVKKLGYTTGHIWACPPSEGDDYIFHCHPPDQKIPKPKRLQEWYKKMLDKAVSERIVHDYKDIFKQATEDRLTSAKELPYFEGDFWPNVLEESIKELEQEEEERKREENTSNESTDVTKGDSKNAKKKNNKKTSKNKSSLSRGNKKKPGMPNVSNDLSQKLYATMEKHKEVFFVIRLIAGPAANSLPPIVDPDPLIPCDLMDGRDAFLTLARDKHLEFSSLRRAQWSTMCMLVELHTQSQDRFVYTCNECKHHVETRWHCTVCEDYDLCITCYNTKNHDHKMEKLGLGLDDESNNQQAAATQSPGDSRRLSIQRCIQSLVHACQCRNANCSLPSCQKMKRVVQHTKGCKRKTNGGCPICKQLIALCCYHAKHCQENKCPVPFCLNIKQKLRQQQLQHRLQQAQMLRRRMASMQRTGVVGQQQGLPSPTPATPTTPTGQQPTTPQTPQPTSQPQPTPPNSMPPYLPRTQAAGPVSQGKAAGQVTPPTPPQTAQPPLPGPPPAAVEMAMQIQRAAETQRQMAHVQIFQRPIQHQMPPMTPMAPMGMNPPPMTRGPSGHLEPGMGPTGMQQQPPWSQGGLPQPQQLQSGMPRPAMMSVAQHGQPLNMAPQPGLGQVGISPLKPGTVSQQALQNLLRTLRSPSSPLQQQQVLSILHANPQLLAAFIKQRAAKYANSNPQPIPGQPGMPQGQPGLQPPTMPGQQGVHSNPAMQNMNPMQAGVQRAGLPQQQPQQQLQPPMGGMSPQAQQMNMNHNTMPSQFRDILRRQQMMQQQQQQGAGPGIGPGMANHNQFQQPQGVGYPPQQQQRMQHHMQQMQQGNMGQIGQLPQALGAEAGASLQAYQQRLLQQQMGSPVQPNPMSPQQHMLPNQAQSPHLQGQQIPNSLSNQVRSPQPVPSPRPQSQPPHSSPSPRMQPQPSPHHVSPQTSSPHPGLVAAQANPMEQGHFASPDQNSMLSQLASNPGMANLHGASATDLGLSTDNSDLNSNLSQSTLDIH

[6] = target: T1, ATPase family AAA domain-containing protein 2; test: Displacement of Halo-tagged Histone H3.3 from Nanoluc-ATAD2 BD (962 to 1119 residues) (unknown origin) transfected in human HCT116 cells incubated for 18 hrs in presence of efflux inhibitor elacridar by NanoBRET assay; type: cell-based, HCT-116
[7] = system: MDA-MB-468; test: Antiproliferative activity against human MDA-MB-468 cells expressing ATAD2 assessed as inhibition of colony formation at 0.01 to 10 uM measured after 14 to 21 days by AlamarBlue staining based colony formation assay; type: functional, cell-based; settings: dose 0.01-10 µM, time 14-21 day
[8] = target: ATPase family AAA domain-containing protein 2B (Homo sapiens) (UniProt Q9ULI0); test: Binding affinity to human ATAD2B bromodomain assessed as residual activity at 300 nM by BROMOscan method relative to control
Sequence of ATPase family AAA domain-containing protein 2B (Homo sapiens) (Q9ULI0 whole entry, the tested form may be a part): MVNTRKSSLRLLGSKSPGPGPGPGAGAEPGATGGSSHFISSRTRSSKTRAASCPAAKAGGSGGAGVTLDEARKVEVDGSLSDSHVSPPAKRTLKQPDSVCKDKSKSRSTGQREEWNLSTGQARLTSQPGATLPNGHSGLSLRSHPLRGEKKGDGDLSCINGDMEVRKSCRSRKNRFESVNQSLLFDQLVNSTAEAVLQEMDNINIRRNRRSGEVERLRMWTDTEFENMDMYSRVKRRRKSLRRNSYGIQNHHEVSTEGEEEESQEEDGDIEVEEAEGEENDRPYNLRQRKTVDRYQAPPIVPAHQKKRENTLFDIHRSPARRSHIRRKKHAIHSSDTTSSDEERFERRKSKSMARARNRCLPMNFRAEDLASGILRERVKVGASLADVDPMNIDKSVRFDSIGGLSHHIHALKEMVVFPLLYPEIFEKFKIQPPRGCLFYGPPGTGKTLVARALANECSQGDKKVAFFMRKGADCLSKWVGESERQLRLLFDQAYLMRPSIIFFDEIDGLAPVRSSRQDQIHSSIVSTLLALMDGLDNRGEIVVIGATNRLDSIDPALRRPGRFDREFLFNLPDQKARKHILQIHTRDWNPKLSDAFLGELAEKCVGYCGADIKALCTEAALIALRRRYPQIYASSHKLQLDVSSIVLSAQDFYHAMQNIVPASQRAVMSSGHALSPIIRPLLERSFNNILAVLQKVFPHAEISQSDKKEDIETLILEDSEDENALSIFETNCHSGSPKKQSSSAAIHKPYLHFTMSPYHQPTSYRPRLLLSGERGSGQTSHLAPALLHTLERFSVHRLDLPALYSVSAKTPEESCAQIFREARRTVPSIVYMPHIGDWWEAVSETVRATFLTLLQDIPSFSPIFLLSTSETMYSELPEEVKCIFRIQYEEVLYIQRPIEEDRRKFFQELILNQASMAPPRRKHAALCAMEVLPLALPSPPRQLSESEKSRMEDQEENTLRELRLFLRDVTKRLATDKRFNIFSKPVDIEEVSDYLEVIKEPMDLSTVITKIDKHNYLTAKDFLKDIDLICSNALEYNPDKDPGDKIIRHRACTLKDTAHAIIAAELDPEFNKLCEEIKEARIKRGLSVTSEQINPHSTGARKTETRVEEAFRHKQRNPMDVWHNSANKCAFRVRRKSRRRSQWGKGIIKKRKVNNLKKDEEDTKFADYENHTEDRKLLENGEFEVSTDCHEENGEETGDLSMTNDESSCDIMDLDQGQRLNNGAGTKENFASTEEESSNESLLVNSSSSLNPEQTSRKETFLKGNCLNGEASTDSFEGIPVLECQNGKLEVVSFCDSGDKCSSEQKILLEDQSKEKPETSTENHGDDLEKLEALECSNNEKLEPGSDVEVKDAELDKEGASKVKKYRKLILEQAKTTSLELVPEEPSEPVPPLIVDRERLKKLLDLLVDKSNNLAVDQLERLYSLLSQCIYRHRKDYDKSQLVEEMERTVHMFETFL

Sequence of Histone acetyltransferase KAT2A (Homo sapiens) (Q92830 2-837 limits assumed): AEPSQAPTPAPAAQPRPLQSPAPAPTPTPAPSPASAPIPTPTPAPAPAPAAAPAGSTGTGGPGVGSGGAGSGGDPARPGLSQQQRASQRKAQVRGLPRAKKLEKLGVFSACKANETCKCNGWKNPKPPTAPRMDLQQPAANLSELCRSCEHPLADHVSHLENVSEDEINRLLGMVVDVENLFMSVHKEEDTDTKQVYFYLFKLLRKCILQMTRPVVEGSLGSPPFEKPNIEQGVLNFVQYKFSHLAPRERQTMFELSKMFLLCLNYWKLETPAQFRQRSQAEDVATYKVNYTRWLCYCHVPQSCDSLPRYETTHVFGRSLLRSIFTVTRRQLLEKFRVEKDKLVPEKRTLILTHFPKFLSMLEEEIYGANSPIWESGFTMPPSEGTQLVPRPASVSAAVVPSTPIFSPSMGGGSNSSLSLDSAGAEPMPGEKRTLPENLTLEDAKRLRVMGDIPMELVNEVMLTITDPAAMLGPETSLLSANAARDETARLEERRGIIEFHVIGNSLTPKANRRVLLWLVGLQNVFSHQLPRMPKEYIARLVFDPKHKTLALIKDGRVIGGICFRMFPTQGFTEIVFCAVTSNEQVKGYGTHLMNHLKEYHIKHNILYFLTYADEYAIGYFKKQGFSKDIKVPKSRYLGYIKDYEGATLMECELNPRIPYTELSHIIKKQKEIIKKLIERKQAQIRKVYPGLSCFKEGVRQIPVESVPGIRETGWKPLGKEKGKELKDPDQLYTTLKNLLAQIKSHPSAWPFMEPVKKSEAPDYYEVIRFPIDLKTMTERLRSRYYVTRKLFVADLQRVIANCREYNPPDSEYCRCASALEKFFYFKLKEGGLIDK

- Activity [1]: 73%
- logD [2]: 3
- pIC50 [3]: 4.70
- pKd [4]: 8.90
- pKd [5]: < 5.50
- pIC50 [6]: 7.00
- Activity [8]: 0%
SMILES: Cc1nnc2c(NC3CCN(CC(C)(C)F)CC3)cc(C(=O)N3[C@@H]4c5ccccc5C[C@H]3C(=O)N[C@@H]4C(C)C)nn12
- Activity [7]: Dose-Dependent Effect
